In data set [1] the test system is HepG2 (hepatocellular carcinoma). The data set can be described thus: CCK-8 anti-proliferative assay, HepG2. The class given is cell-based. The conditions noted are these: Homo sapiens, CCK-8 assay, average of three independent experiments in triplicate. The procedure: (§1) CCK8 is much more convenient and helpful than MTT for analyzing cell proliferation, because it can be reduced to soluble formazan by dehydrogenase in mitochondria and has little toxicity to cells. Cell proliferation was determined using CCK8 dye (BeyotimeInst Biotech, Shanghai, China) according to manufacturer’s instructions. Briefly, 1–5 × 10^3 cells per well were seeded in a 96-well plate, grown at 37 °C for 12 h, Subsequently, cells were treated with compounds at increasing concentrations in the presence of 10% FBS for 24 or 48 h. After 10 µL CCK8 dye was added to each well, cells were incubated at 37 °C for 1–2 h and Plates were read in a Victor-V multilabel counter (Perkin-Elmer, Waltham, MA, USA) using the default europium detection protocol. Percent inhibition or IC50 values of compounds were calculated by comparison with DMSO-treated control wells.

Data set [2] relates to HeLa (cervix of uterus adenocarcinoma). The data set can be described thus: CCK-8 anti-proliferative assay, HeLa. The class given is cell-based. The conditions noted are these: Homo sapiens, CCK-8 assay, average of three independent experiments in triplicate. The procedure:
as §1
Background: Tetrazolium assays rely on reduction of a dye to a coloured formazan, in cell work by metabolically active cells.

The test system of another data set is A549 (lung carcinoma). The data set can be described thus: CCK-8 anti-proliferative assay, A549. The class given is cell-based. Particulars: Homo sapiens, CCK-8 assay, average of three independent experiments in triplicate. The protocol: as §1
Another data set deals with T1, EGFR (Homo sapiens, UniProt P00533).
T1 construct: EGFR cytoplasmic domain (EGFR-CD, amino acids 645–1186); (His)6 (N); made in house; host or cells: Sf-9 insect cells (baculovirus)
T1 sequence (P00533 669-1210): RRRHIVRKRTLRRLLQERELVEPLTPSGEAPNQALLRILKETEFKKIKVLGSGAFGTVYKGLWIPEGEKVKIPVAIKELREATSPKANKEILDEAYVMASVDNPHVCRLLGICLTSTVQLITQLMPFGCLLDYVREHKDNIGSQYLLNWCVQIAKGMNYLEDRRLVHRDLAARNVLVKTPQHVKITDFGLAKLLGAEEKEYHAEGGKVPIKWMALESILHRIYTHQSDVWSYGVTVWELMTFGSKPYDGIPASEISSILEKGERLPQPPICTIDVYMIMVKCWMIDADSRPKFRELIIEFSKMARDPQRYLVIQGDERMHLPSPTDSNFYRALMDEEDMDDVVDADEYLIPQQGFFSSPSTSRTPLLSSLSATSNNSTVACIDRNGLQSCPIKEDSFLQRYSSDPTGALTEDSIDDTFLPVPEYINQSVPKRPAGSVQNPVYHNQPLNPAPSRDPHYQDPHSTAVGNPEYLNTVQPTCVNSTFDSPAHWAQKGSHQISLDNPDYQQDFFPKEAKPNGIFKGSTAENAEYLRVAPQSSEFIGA
Put plainly: EGFR kinase autophosphorylation assay (DELFIA/time-resolved fluorometry). The conditions noted are these: in vitro EGFR enzyme inhibition. The class given is biochemical. The procedure: A sequence that encodes (His)6 was located at the 5′ upstream to the EGFR sequences. Sf-9 cells were infected for 3 days for protein expression. Sf-9 cell pellets were solubilized at 0 °C in a buffer at pH 7.4 containing 50 mM HEPES, 10 mM NaCl, 1% Triton, 10 µM ammonium molybdate, 100 µM sodium vanadate, 10 µg/mL aprotinin, 10 µg/mL leupeptin, 10 µg/mL pepstatin, and 16 µg/mL benzamidine HCl for 20 min followed by 20 min centrifugation. Crude extract supernatant was passed through an equilibrated Ni-NTA superflow packed column and washed with 10 mM and then 100 mM imidazole to remove nonspecifically bound material. Histidine tagged proteins were eluted with 250 and 500 mM imidazole and dialyzed against 50 mM NaCl, 20 mM HEPES, 10% glycerol, and 1 µg/mL each of aprotinin, leupeptin and pepstatin for 2 h. The entire purification procedure was performed at 4 °C or on ice.
EGFR kinase assays were set up to assess the level of autophosphorylation based on DELFIA/Time-Resolved Fluorometry. All compounds were dissolved in 100% DMSO and diluted to the appropriate concentrations with 25 mM HEPES at pH 7.4. In each well, 10 µL compound was incubated with 10 µL (5 ng for EGFR) recombinant enzyme (1:80 dilution in 100 mM HEPES) for 10 min at room temperature. Then, 10 µL of 5 mM buffer (containing 20 mM HEPES, 2 mM MnCl2, 100 µM Na3VO4 and 1 mM DTT) and 20 µL of 0.1 mM ATP–50 mM MgCl2 were added for 1 h. Positive and negative controls were included in each plate by incubation of enzyme with or without ATP–MgCl2. At the end of incubation, liquid was aspirated, and plates were washed three times with wash buffer. A 75 µL (400 ng) sample of europium labeled anti-phosphotyrosine antibody was added to each well for another 1 h of incubation. After washing, enhancement solution was added and the signal was detected by Victor (Wallac Inc., Gaithersburg, MD, USA) with excitation at 340 nm and emission at 615 nm. The percentage of auto-phosphorylation inhibition by the compounds was calculated using the following formula: 100% − [(negative control)/(positive control − negative control)]. The IC50 was obtained from curves of percentage inhibition with eight concentrations of compound.

Data set [3] deals with S180 (sarcoma tumer cell line). Put plainly: In vivo tumor xenograft model, S180 tumor-bearing mice. Set-up: species or system Kunming mice. The conditions noted are these: 60 mg/kg/day oral gavage, ten days; for Inhibition rate: from average tumor weights vs control. The protocol: (§2) Kunming mice (SPF, male or female, 20 ± 2 g) were purchased from the experimental animal center of China Pharmaceutical University. Animals were housed in a temperature (22 ± 2 °C) and relatively humidity (50%)-controlled room on a 12 h light/dark cycle, given free access to food and water, and acclimatized for at least one week prior to use. All the animal experiments were performed in accordance with the Regulations of the Experimental Animal Administration issued by the State Committee of Science and Technology of China.
(§3) Cell lines used for evaluation of the in vivo antitumor activity in this study included three tumor cell lines, namely S180 (sarcoma tumer cell line), HepG2 (liver carcinoma cell line), EAC (Ehrlich ascites carcinoma cell line). All of cell lines were purchased by the Shanghai Institutes for Biological Sciences, Chinese Academy of Sciences, and the cells were cultured in RPMI-1640 medium, which was supplemented with 10% heat-inactivated fetal bovine serum, 100 U/mL penicillin and 100 U/mL streptomycin and cultured in an atmosphere of 5% CO2 at 37 °C. Cells were collected for the experiments in the logarithmic growth phase.
(§4) To establish the tumor-bearing mouse model, the cell lines were harvested and inoculated subcutaneously into the right armpit region of the mice. On the 7th day, the tumor ascrites were obtained and washed with sterile PBS. Under sterile condition, the tumor ascrites were diluted with sterile nomal saline to 1 × 10^10 /L cell suspension. Tumor ascites were maintained in vivo in mice by transplantation of 0.2 mL of ascites (2 × 10^6 cells) from the infected mice to the non-infected mice.
(§5) Each Kunming mouse (male or female, weight 20 ± 2 g) were inoculated with seven-day-old ascrite (0.2 mL, 2 × 10^6 cells) subcutaneously into the right front armpit. 24 h after implantation of tumor cells, the mice were randomly divided into five test groups with 10 mice per group. Each mouse was weighed immediately after inoculation. The mice were treated by oral gavage with test samples (60 mg/kg/day) or normal saline (NS, 10 mL/kg) for ten days once daily. On day 11, the mice were sacrificed via cervical dislocation, and the mouse and tumor were excised and weighed for evaluating the tumor growth inhibition. The tumor inhibitory rate was calculated by the following formula: [drawing 5] (1) where Wcontrol and Wtreated were the average tumor weights of the control and treated mice, respectively. […] The effect of glycyrrhizin analogs on percentage increases in life span was calculated on the basis of mortality of the experimental mice: […]

Data set [4] has as its system HepG2 (liver carcinoma cell line). Put plainly: In vivo tumor xenograft model, HepG2 tumor-bearing mice. Also noted: species or system Kunming mice. Particulars: 60 mg/kg/day oral gavage, ten days; for Inhibition rate: from average tumor weights vs control. The procedure:
as §2, §3, §4, §5

The subject of data set [5] is EAC (Ehrlich ascites carcinoma cell line). Put plainly: Survival of EAC tumor-bearing mice. It counts as in vivo, Kunming mice. Particulars: for Survival time: control 16.40 ± 2.07 d; for Survival rate: percentage increase in life span vs control. The procedure:
as §2, §3, §4, §5

A word on the IC50: it is the concentration at which inhibition is half-maximal. A high value points to lower potency. As to `CC1(C)[C@@H](O[C@@H]2O[C@H](C(=O)O)[C@@H](O)[C@H](O)[C@H]2O)CC[C@]2(C)[C@H]3C(=O)C=C4[C@H]5C[C@@](C)(C(=O)O)CC[C@]5(C)CC[C@@]4(C)[C@]3(C)CC[C@@H]12` [18α-GAMG], the concentration for half-maximal inhibition (IC50) in data set [1] was 6.67 µM; in data set [2] it was 7.43 µM; in the data set with A549 (lung carcinoma) it was 15.8 µM; against EGFR, 0.028 µM. Further, the “Body weight End” value in data set [3] worked out at 25.25 ± 1.80 g; in data set [4], 27.02 ± 2.10 g. Moreover, the Tumor weight in data set [3] was 1.15 ± 0.50 g; in data set [4] it was 0.98 ± 0.43 g. Besides, the Inhibition rate in data set [3] was found to be 39.8%; in data set [4] it was 49.7%. In addition, the Survival time in data set [5] was 23.85 ± 5.41 days. The same molecule gave a Survival rate in data set [5] of 45.4%.
With `CC1(C)[C@@H](O[C@@H]2O[C@H](C(=O)O)[C@@H](O)[C@H](O)[C@H]2O)CC[C@]2(C)[C@H]3C(=O)C=C4[C@@H]5C[C@@](C)(C(=O)O)CC[C@]5(C)CC[C@@]4(C)[C@]3(C)CC[C@@H]12` [18β-GAMG, glycyrrhetic acid 3-O-mono-β-D-glucuronide], the IC50 in data set [1] was found to be 33.6 µM; in data set [2], 8.39 µM; in the data set with A549 (lung carcinoma) it was 21.6 µM; against EGFR, 0.069 µM. In addition, the “Body weight End” value in data set [3] was 25.02 ± 2.58 g; in data set [4] it was 27.8 ± 1.57 g. Further, the Tumor weight is 1.25 ± 0.19 g in data set [3] and 1.20 ± 0.35 g in data set [4]. Further, the results for the Inhibition rate in data set [3] and in data set [4] were 34.6% and 38.4%, respectively. The molecule also registered a Survival time in data set [5] of 21.05 ± 4.65 days. Also, in data set [5], the Survival rate came to 28.4%.
On to `CC1(C(=O)O)CCC2(C)CCC3(C)C(=CC(=O)C4C5(C)CCC(OC6OC(C(=O)O)C(O)C(O)C6OC6OC(C(=O)O)C(O)C(O)C6O)C(C)(C)C5CCC43C)C2C1` (stereo not drawn) [18α-GA, 18α-Glycyrrhizin], for which the IC50 was 54.2 µM in data set [1], 15.1 µM in data set [2], 41.6 µM in the data set on A549 (lung carcinoma) and 0.081 µM at EGFR. In addition, the “Body weight End” value in data set [3] is 25.20 ± 1.11 g; in data set [4], 26.08 ± 1.26 g. Further, the Tumor weight is reported as 1.29 ± 0.47 g in data set [3] and 1.22 ± 0.46 g in data set [4]. Also, the Inhibition rate in data set [3] is reported as 32.5%; in data set [4] it was 37.4%. Besides, the Survival time in data set [5] stood at 19.75 ± 3.08 days. In data set [5], this molecule displayed a Survival rate of 20.4%.
Consider `CC1(C)[C@@H](O[C@H]2O[C@H](C(=O)O)[C@@H](O)[C@H](O)[C@H]2O[C@@H]2O[C@H](C(=O)O)[C@@H](O)[C@H](O)[C@H]2O)CC[C@]2(C)[C@H]3C(=O)C=C4[C@@H]5C[C@@](C)(C(=O)O)CC[C@]5(C)CC[C@@]4(C)[C@]3(C)CC[C@@H]12` [18β-GA, Glycyrrhizin], for which the IC50 in data set [1] worked out at 63.6 µM; in data set [2], 18.9 µM; in the data set on A549 (lung carcinoma) it was 51.9 µM; at EGFR, 0.092 µM. The “Body weight End” value in data set [3] came out at 24.48 ± 2.37 g; in data set [4], 26.94 ± 2.05 g. Further, the Tumor weight in data set [3] is on record as 1.33 ± 0.67 g; in data set [4], 1.26 ± 0.65 g. The figures for the Inhibition rate in data set [3] and in data set [4] were 30.4% and 35.4%, respectively. In data set [5], this molecule had a Survival time of 19.40 ± 3.77 days. The molecule also yielded a Survival rate in data set [5] of 18.3%.
As for `C#Cc1cccc(Nc2ncnc3cc(OCCOC)c(OCCOC)cc23)c1` [Erlotinib, reference compound], the figures for the IC50 (in data set [1]; in data set [2]; in the data set on A549 (lung carcinoma)) were 0.12 µM, 0.2 µM and 0.13 µM, respectively.

Values taken from PMC6271220, “Synthesis, Molecular Docking and Biological Evaluation of Glycyrrhizin Analogs as Anticancer Agents Targeting EGFR” (Molecules, 2014).
